Measurements taken from patent US6878381B2, “Resorcinol composition” (Pfizer, Inc, priority 1999, dated 2005).

How the values were obtained:
human tyrosinase = biological target: T1, human tyrosinase (Homo sapiens, UniProt P14679); assay: Tyrosinase (DOPA oxidase) assay using cell lysate; assay type: biochemical; conditions: SKMEL 188 human melanoma cell lysate; L-DOPA 100 μg/ml; 8 hr incubation; read at 405 nm
T1 construct: endogenous in cells; host or cells: SKMEL 188 human melanoma cell line (lysate)
T1 sequence (P14679 19-529): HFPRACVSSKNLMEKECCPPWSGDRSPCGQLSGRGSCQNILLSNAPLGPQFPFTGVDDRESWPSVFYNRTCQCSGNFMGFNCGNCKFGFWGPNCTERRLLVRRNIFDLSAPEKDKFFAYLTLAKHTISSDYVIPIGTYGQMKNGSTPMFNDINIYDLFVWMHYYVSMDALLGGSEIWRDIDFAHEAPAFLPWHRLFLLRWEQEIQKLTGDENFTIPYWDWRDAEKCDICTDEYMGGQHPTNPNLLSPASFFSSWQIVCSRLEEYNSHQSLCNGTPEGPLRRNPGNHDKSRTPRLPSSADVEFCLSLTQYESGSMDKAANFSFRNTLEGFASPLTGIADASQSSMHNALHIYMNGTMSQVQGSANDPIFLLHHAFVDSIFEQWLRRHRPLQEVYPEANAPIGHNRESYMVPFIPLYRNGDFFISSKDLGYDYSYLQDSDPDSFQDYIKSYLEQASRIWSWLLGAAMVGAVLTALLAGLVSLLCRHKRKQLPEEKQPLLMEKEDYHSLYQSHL
Protocol: 1. Tyrosinase (DOPA Oxidase) Assay Using Cell Lysate:
Human melanoma cell line, SKMEL 188 (licensed from Memorial Sloan-Kettering), is used in the cell lysate assay and the screen. In the assay, compounds and L-dihydroxyphenylalanine (L-DOPA) (100 μg/ml) are incubated with the cell lysates containing human tyrosinase for 8 hr before the plates are read at 405 nm. Potency of the compounds in DOPA oxidase assay is correlated very well with that in tyrosine hydroxylase assay using ^3H-tyrosine as a substrate.

[1] = test system: guinea pig skin pigmentation; assay: In vivo study: skin depigmentation in black or dark brown guinea pigs; conditions: 5% solution in ethanol:propylene glycol 70:30, topical, twice daily, 5 days per week for 4-8 weeks
From the text: Black or dark brown guinea pigs with homogeneous skin color can be used in this study. A solution of the test compound (5% in ethanol:propylene glycol, 70:30) and the vehicle control are applied to the animals twice daily, 5 days per week for 4-8 weeks.

Structure (SMILES): Oc1ccc(C2CCC(O)CC2)c(O)c1 (centres unmarked) [4-(2,4-dihydroxyphenyl)cyclohexanol]
- IC50 (human tyrosinase): 200 nM
- depigmentation of skin [1]: depigmentation of skin
